{"source": "patent US20230085307A1", "about": "“PYRIDAZINONE COMPOUND AND HERBICIDE” (NISSAN CHEMICAL CORPORATION, priority 2019, published 2023)", "key": {"velvetleaf [1]": {"system": "velvetleaf", "experiment": "Test Example 5: herbicidal effect by foliage application, plastic box (Table 20, symbol M)", "assay_type": "in vivo, velvetleaf (Abutilon theophrasti)", "details": "foliage application, 320 g/ha, 3 weeks after application", "outline": "(§1)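 Plants sown in sterilized diluvial soil and grown 14 days in a greenhouse at 25° C to 30° C, then sprayed on the foliage with the compound's emulsion diluted in water to a predetermined herbicide amount. Injury to weeds and crops scored three weeks after application on a visual rating scale.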"}, "southern crabgrass [2]": {"system": "southern crabgrass", "experiment": "Test Example 4: herbicidal effect by soil treatment (Table 19, symbol F)", "assay_type": "in vivo, southern crabgrass (Digitaria ciliaris)", "details": "AAH 320 g/ha", "outline": "(§2)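 Seeds were sown in sterilized diluvial soil and covered with about 1.5 cm of soil. An emulsion formulation diluted with water to a predetermined herbicide amount was sprayed evenly onto the soil surface. Plants grew in a greenhouse at 25° C. to 30° C., and the effect was scored three weeks after application using criteria from an earlier test.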"}, "persian speedwell [3]": {"system": "persian speedwell", "experiment": "Test Example 5: herbicidal effect by foliage application, plastic box (Table 20, symbol R)", "assay_type": "in vivo, Persian speedwell (Veronica persica)", "details": "foliage application, 320 g/ha, 3 weeks after application", "outline": "as §1"}, "barnyard grass [4]": {"system": "barnyard grass", "experiment": "Test Example 5: herbicidal effect by foliage application, plastic box (Table 20, symbol H)", "assay_type": "in vivo, barnyard grass (Echinochloa crus-galli)", "details": "foliage application, 320 g/ha, 3 weeks after application", "outline": "as §1"}, "lambsquarters [5]": {"system": "lambsquarters", "experiment": "Test Example 4: herbicidal effect by soil treatment (Table 19, symbol O)", "assay_type": "in vivo, lambsquarters (Chenopodium album)", "details": "AAH 320 g/ha", "outline": "as §2"}, "barnyard grass [6]": {"system": "barnyard grass", "experiment": "Test Example 3: herbicidal effect by foliage application, Wagner pot (Table 18, symbol H)", "assay_type": "in vivo, barnyard grass (Echinochloa crus-galli)", "details": "320 g/ha", "outline": "(§3)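 Plants were sown in alluvial soil held under 0.1–0.5 cm standing water and grown 14 days in a greenhouse at 25–30 °C. An emulsifiable formulation, water-diluted to the set dose, was then sprayed onto the foliage, and effects were scored three weeks later using previously defined criteria.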"}, "velvetleaf [7]": {"system": "velvetleaf", "experiment": "Test Example 4: herbicidal effect by soil treatment (Table 19, symbol M)", "assay_type": "in vivo, velvetleaf (Abutilon theophrasti)", "details": "AAH 320 g/ha", "outline": "as §2"}, "Chinese sprangletop": {"system": "Chinese sprangletop", "experiment": "Test Example 3: herbicidal effect by foliage application, Wagner pot (Table 18, symbol D)", "assay_type": "in vivo, chinese sprangletop (Leptochloa chinensis)", "details": "320 g/ha", "outline": "as §3"}, "green foxtail [8]": {"system": "green foxtail", "experiment": "Test Example 4: herbicidal effect by soil treatment (Table 19, symbol G)", "assay_type": "in vivo, green foxtail (Setaria viridis)", "details": "AAH 320 g/ha", "outline": "as §2"}, "windgrass": {"system": "windgrass", "experiment": "Test Example 4: herbicidal effect by soil treatment (Table 19, symbol L)", "assay_type": "in vivo, windgrass (Apera spica-venti)", "details": "AAH 320 g/ha", "outline": "as §2"}, "Italian ryegrass [9]": {"system": "Italian ryegrass", "experiment": "Test Example 4: herbicidal effect by soil treatment (Table 19, symbol K)", "assay_type": "in vivo, Italian ryegrass (Lolium multiflorum)", "details": "AAH 320 g/ha", "outline": "as §2"}, "Italian ryegrass [10]": {"system": "Italian ryegrass", "experiment": "Test Example 5: herbicidal effect by foliage application, plastic box (Table 20, symbol K)", "assay_type": "in vivo, Italian ryegrass (Lolium multiflorum)", "details": "foliage application, 320 g/ha, 3 weeks after application", "outline": "as §1"}, "green foxtail [11]": {"system": "green foxtail", "experiment": "Test Example 5: herbicidal effect by foliage application, plastic box (Table 20, symbol G)", "assay_type": "in vivo, green foxtail (Setaria viridis)", "details": "foliage application, 320 g/ha, 3 weeks after application", "outline": "as §1"}, "blackgrass [12]": {"system": "blackgrass", "experiment": "Test Example 5: herbicidal effect by foliage application, plastic box (Table 20, symbol J)", "assay_type": "in vivo, blackgrass (Alopecurus myosuroides)", "details": "foliage application, 320 g/ha, 3 weeks after application", "outline": "as §1"}, "false cleavers": {"system": "false cleavers", "experiment": "Test Example 4: herbicidal effect by soil treatment (Table 19, symbol Q)", "assay_type": "in vivo, false cleavers (Galium spurium)", "details": "AAH 320 g/ha", "outline": "as §2"}, "persian speedwell [13]": {"system": "persian speedwell", "experiment": "Test Example 4: herbicidal effect by soil treatment (Table 19, symbol R)", "assay_type": "in vivo, Persian speedwell (Veronica persica)", "details": "AAH 320 g/ha", "outline": "as §2"}, "wild oat [14]": {"system": "wild oat", "experiment": "Test Example 5: herbicidal effect by foliage application, plastic box (Table 20, symbol I)", "assay_type": "in vivo, wild oat (Avena fatua)", "details": "foliage application, 320 g/ha, 3 weeks after application", "outline": "as §1"}, "redroot pigweed": {"system": "redroot pigweed", "experiment": "Test Example 4: herbicidal effect by soil treatment (Table 19, symbol N)", "assay_type": "in vivo, redroot pigweed (Amaranthus retroflexus)", "details": "AAH 320 g/ha", "outline": "as §2"}, "barnyard grass [15]": {"system": "barnyard grass", "experiment": "Test Example 4: herbicidal effect by soil treatment (Table 19, symbol H)", "assay_type": "in vivo, barnyard grass (Echinochloa crus-galli)", "details": "AAH 320 g/ha", "outline": "as §2"}, "southern crabgrass [16]": {"system": "southern crabgrass", "experiment": "Test Example 5: herbicidal effect by foliage application, plastic box (Table 20, symbol F)", "assay_type": "in vivo, southern crabgrass (Digitaria ciliaris)", "details": "foliage application, 320 g/ha, 3 weeks after application", "outline": "as §1"}, "blackgrass [17]": {"system": "blackgrass", "experiment": "Test Example 4: herbicidal effect by soil treatment (Table 19, symbol J)", "assay_type": "in vivo, blackgrass (Alopecurus myosuroides)", "details": "AAH 320 g/ha", "outline": "as §2"}, "lambsquarters [18]": {"system": "lambsquarters", "experiment": "Test Example 5: herbicidal effect by foliage application, plastic box (Table 20, symbol O)", "assay_type": "in vivo, lambsquarters (Chenopodium album)", "details": "foliage application, 320 g/ha, 3 weeks after application", "outline": "as §1"}, "wild oat [19]": {"system": "wild oat", "experiment": "Test Example 4: herbicidal effect by soil treatment (Table 19, symbol I)", "assay_type": "in vivo, wild oat (Avena fatua)", "details": "AAH 320 g/ha", "outline": "as §2"}, "chickweed": {"system": "chickweed", "experiment": "Test Example 4: herbicidal effect by soil treatment (Table 19, symbol P)", "assay_type": "in vivo, common chickweed (Stellaria media)", "details": "AAH 320 g/ha", "outline": "as §2"}, "rice flat sedge": {"system": "rice flat sedge", "experiment": "Test Example 3: herbicidal effect by foliage application, Wagner pot (Table 18, symbol E)", "assay_type": "in vivo, rice flat sedge (Cyperus iria)", "details": "320 g/ha", "outline": "as §3"}}, "data": [{"smiles": "COCCOCc1ccc(-c2sc3ccccc3c2-c2c(O)c(C)nn(C)c2=O)cc1", "note": "[1-255]", "values": [{"measurement": "effect on velvetleaf (M)", "setting": "velvetleaf [1]", "result": "5 (Herbicidal rate of 90% or more (almost completely withered))"}, {"measurement": "F: southern crabgrass, herbicidal effect rating", "setting": "southern crabgrass [2]", "result": "3 (Herbicidal rate of 40% or more and less than 70%)"}, {"measurement": "effect on persian speedwell (R)", "setting": "persian speedwell [3]", "result": "5 (Herbicidal rate of 90% or more (almost completely withered))"}, {"measurement": "effect on barnyard grass (H)", "setting": "barnyard grass [4]", "result": "5 (Herbicidal rate of 90% or more (almost completely withered))"}, {"measurement": "O: lambsquarters, herbicidal effect rating", "setting": "lambsquarters [5]", "result": "5 (Herbicidal rate of 90% or more (almost completely withered))"}, {"measurement": "herbicidal effect on H (barnyard grass), rating 0-5", "setting": "barnyard grass [6]", "result": "5 (Herbicidal rate of 90% or more (almost completely withered))"}, {"measurement": "M: velvetleaf, herbicidal effect rating", "setting": "velvetleaf [7]", "result": "4 (Herbicidal rate of 70% or more and less than 90%)"}, {"measurement": "herbicidal effect on D (Chinese sprangletop), rating 0-5", "setting": "Chinese sprangletop", "result": "3 (Herbicidal rate of 40% or more and less than 70%)"}, {"measurement": "G: green foxtail, herbicidal effect rating", "setting": "green foxtail [8]", "result": "4 (Herbicidal rate of 70% or more and less than 90%)"}, {"measurement": "L: windgrass, herbicidal effect rating", "setting": "windgrass", "result": "0 (Herbicidal rate of 5% or less (almost no effect))"}, {"measurement": "K: Italian ryegrass, herbicidal effect rating", "setting": "Italian ryegrass [9]", "result": "4 (Herbicidal rate of 70% or more and less than 90%)"}, {"measurement": "effect on Italian ryegrass (K)", "setting": "Italian ryegrass [10]", "result": "5 (Herbicidal rate of 90% or more (almost completely withered))"}, {"measurement": "effect on green foxtail (G)", "setting": "green foxtail [11]", "result": "5 (Herbicidal rate of 90% or more (almost completely withered))"}, {"measurement": "effect on blackgrass (J)", "setting": "blackgrass [12]", "result": "4 (Herbicidal rate of 70% or more and less than 90%)"}, {"measurement": "Q: false cleavers, herbicidal effect rating", "setting": "false cleavers", "result": "0 (Herbicidal rate of 5% or less (almost no effect))"}, {"measurement": "R: persian speedwell, herbicidal effect rating", "setting": "persian speedwell [13]", "result": "5 (Herbicidal rate of 90% or more (almost completely withered))"}, {"measurement": "effect on wild oat (I)", "setting": "wild oat [14]", "result": "0 (Herbicidal rate of 5% or less (almost no effect))"}, {"measurement": "N: redroot pigweed, herbicidal effect rating", "setting": "redroot pigweed", "result": "5 (Herbicidal rate of 90% or more (almost completely withered))"}, {"measurement": "H: barnyard grass, herbicidal effect rating", "setting": "barnyard grass [15]", "result": "5 (Herbicidal rate of 90% or more (almost completely withered))"}, {"measurement": "effect on southern crabgrass (F)", "setting": "southern crabgrass [16]", "result": "4 (Herbicidal rate of 70% or more and less than 90%)"}, {"measurement": "J: blackgrass, herbicidal effect rating", "setting": "blackgrass [17]", "result": "2 (Herbicidal rate of 20% or more and less than 40%)"}, {"measurement": "effect on lambsquarters (O)", "setting": "lambsquarters [18]", "result": "5 (Herbicidal rate of 90% or more (almost completely withered))"}, {"measurement": "I: wild oat, herbicidal effect rating", "setting": "wild oat [19]", "result": "0 (Herbicidal rate of 5% or less (almost no effect))"}, {"measurement": "P: chickweed, herbicidal effect rating", "setting": "chickweed", "result": "4 (Herbicidal rate of 70% or more and less than 90%)"}, {"measurement": "herbicidal effect on E (rice flat sedge), rating 0-5", "setting": "rice flat sedge", "result": "5 (Herbicidal rate of 90% or more (almost completely withered))"}]}]}
